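48-hour exposure; five concentrations; linearly interpolated endpoints. Definition used: TGI = concentration required for complete inhibition of growth.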

Among the test systems are A549 NSCLC; SN12C renal; LOX IMVI melanoma; SF-295 CNS; EKVX NSCLC; SF-539 CNS; NCI-H23 lung; HCC-2998 colon; BT-549 breast; MDA-MB-435; NCI-H522 lung; DU-145 prostate; HS 578T breast; UO-31 renal; MDA-MB-231 breast; KM12 colon; MALME-3M melanoma; SK-MEL-2 melanoma; CAKI-1 renal.
Assay in all cases: DTP human tumour cell line panel, 48 h

By TGI is commonly meant the concentration giving total growth inhibition. A higher TGI goes with lower sensitivity of the cells. `O=C(CC(C(=O)c1cccs1)c1ccsc1)c1ccsc1` (configuration not stated): the TGI with A549 NSCLC was above 100 µM; with SN12C renal, above 100 µM; with LOX IMVI melanoma it was above 100 µM; in the test with SF-295 CNS, 93.3 µM; with EKVX NSCLC, above 100 µM; in the test with SF-539 CNS, 94.8 µM. The TGI in the test with NCI-H23 lung is above 100 µM; with HCC-2998 colon it was above 100 µM; in the test with BT-549 breast, above 100 µM; in the test on MDA-MB-435 it was above 100 µM; with NCI-H522 lung, 50 µM; in the test with DU-145 prostate, above 100 µM. In addition, the TGI was 71.2 µM with HS 578T breast; above 100 µM in the test on UO-31 renal; above 100 µM in the test on MDA-MB-231 breast; above 100 µM with KM12 colon; above 100 µM with MALME-3M melanoma.

Regarding `C1=NCCOCCN=Cc2ccccc2OCc2cccc(n2)COc2ccccc21`, the TGI is above 25 µM with A549 NSCLC; 15.2 µM with SN12C renal; 12 µM in the test with SF-295 CNS; above 25 µM with EKVX NSCLC; 9.13 µM in the test with SF-539 CNS; above 25 µM in the test on NCI-H23 lung. Also, the TGI was 19.1 µM in the test with BT-549 breast; 3.68 µM with MDA-MB-435; above 25 µM in the test with NCI-H522 lung; 20.7 µM in the test on DU-145 prostate; above 25 µM with SK-MEL-2 melanoma; 15 µM in the test with HS 578T breast. For the same compound, the TGI in the test with UO-31 renal was above 25 µM; with MDA-MB-231 breast, 19.1 µM; with KM12 colon, above 25 µM; in the test with MALME-3M melanoma, 22.5 µM.

In the case of `N#Cc1c2c([nH]c(=O)c1C#N)CCCC2`, the TGI in the test on A549 NSCLC, with SN12C renal, with LOX IMVI melanoma, in the test on SF-295 CNS, in the test with EKVX NSCLC and with SF-539 CNS was above 100 µM throughout. Further, the TGI in the test with NCI-H23 lung, with HCC-2998 colon, in the test on BT-549 breast, with MDA-MB-435, with CAKI-1 renal and in the test with DU-145 prostate was above 100 µM throughout. The concentration for total growth inhibition (TGI) with SK-MEL-2 melanoma, in the test with HS 578T breast, with UO-31 renal, in the test on MDA-MB-231 breast, in the test with KM12 colon and in the test with MALME-3M melanoma was above 100 µM in each case.

Turning to `Cc1cc(C2(c3cc(C)c(O)c(C(=O)O)c3)OS(=O)(=O)c3ccccc32)cc(C(=O)O)c1O`, the TGI in the test on A549 NSCLC, in the test with SN12C renal, in the test with LOX IMVI melanoma, in the test on SF-295 CNS, in the test with EKVX NSCLC and in the test with SF-539 CNS was above 100 µM in each case. Also, the TGI in the test on BT-549 breast, in the test with MDA-MB-435, with NCI-H522 lung, with CAKI-1 renal, in the test on DU-145 prostate and with SK-MEL-2 melanoma was above 100 µM in each case. The TGI in the test on HS 578T breast, in the test on UO-31 renal, in the test with MDA-MB-231 breast, in the test on KM12 colon and in the test on MALME-3M melanoma was above 100 µM each time.

Take `O=C1CC(CC(OCc2ccccc2)C(COCc2ccccc2)OCc2ccccc2)CC(=O)N1` (configuration not stated): the TGI was above 100 µM in the test with A549 NSCLC; above 100 µM in the test with SN12C renal; above 100 µM in the test with LOX IMVI melanoma; above 100 µM in the test with SF-295 CNS; 92.8 µM with EKVX NSCLC; above 100 µM in the test on SF-539 CNS. The TGI in the test on NCI-H23 lung is above 100 µM; in the test on HCC-2998 colon, above 100 µM; with BT-549 breast, 49.8 µM; in the test with MDA-MB-435 it was 85 µM; in the test with NCI-H522 lung, 61.7 µM; in the test with CAKI-1 renal, 76.3 µM. Also, the TGI is above 100 µM in the test on DU-145 prostate; above 100 µM with HS 578T breast; 58.5 µM in the test on UO-31 renal; above 100 µM in the test on MDA-MB-231 breast; above 100 µM with KM12 colon; 45.8 µM in the test with MALME-3M melanoma.

In the case of `NCCCc1ccc2oc3ccccc3c2c1`, the TGI in the test with A549 NSCLC worked out at 32.9 µM; with SN12C renal it was 31.9 µM; with LOX IMVI melanoma, 39.9 µM; in the test with SF-295 CNS, 33.2 µM; with SF-539 CNS it was 36.9 µM; with NCI-H23 lung, 41.8 µM. Further, the TGI in the test on HCC-2998 colon is 22.5 µM; in the test with BT-549 breast, 37.2 µM; in the test on MDA-MB-435 it was 29.1 µM; in the test on NCI-H522 lung, 40 µM; with CAKI-1 renal, 29.7 µM; in the test with DU-145 prostate it was 30.6 µM. The TGI in the test on SK-MEL-2 melanoma was 38.2 µM; with HS 578T breast, 47.7 µM; in the test on UO-31 renal, 29.6 µM; in the test on MDA-MB-231 breast, 33 µM; with MALME-3M melanoma, 34.3 µM.

For the compound `CCOC(=O)C1(Cc2c[nH]c3ccccc23)C(O)CCCN1C(C)=O` (configuration not stated), the TGI with A549 NSCLC, in the test with LOX IMVI melanoma, with SF-295 CNS, with EKVX NSCLC, with SF-539 CNS and in the test on NCI-H23 lung was above 100 µM throughout. For the same compound, the TGI with HCC-2998 colon, in the test on BT-549 breast, with MDA-MB-435, with CAKI-1 renal, in the test with DU-145 prostate and in the test with SK-MEL-2 melanoma was above 100 µM throughout. The TGI with HS 578T breast, in the test with UO-31 renal, in the test on MDA-MB-231 breast, with KM12 colon and with MALME-3M melanoma was above 100 µM throughout.

On to `O=[N+]([O-])c1ccc(N=NN2CCCC2)cc1`, for which the TGI in the test with SN12C renal, with LOX IMVI melanoma, with SF-295 CNS, in the test with EKVX NSCLC, with SF-539 CNS and in the test on NCI-H23 lung was above 100 µM throughout. Moreover, the TGI in the test with HCC-2998 colon is 20.6 µM; with BT-549 breast, above 100 µM; in the test with MDA-MB-435, above 100 µM; in the test on NCI-H522 lung it was above 100 µM; in the test on CAKI-1 renal, above 100 µM; in the test with DU-145 prostate it was above 100 µM. In addition, the TGI in the test with SK-MEL-2 melanoma, in the test with HS 578T breast, in the test on UO-31 renal, in the test with MDA-MB-231 breast and with KM12 colon was above 100 µM each time.
